What was measured:
Format in all cases: in vivo
[1] = tested on: wheat (Triticum aestivum); test: Test A pre-/postemergence plant response
In short: (§1)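 Scores reflect visual plant injury relative to untreated controls on a 0–100 scale, recorded approximately 10 days after simultaneous preemergence soil spraying and postemergence spraying of one- to two-leaf seedlings grown in loam–sand.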

[2] = tested on: barnyardgrass (Echinochloa crus-galli); test: Test A pre-/postemergence plant response
In short: as §1

[3] = tested on: giant foxtail (Setaria faberi); test: Test A pre-/postemergence plant response
In short: as §1

[4] = tested on: velvetleaf (Abutilon theophrasti); test: Test A pre-/postemergence plant response
In short: as §1

[5] = tested on: morningglory (Ipomoea coccinea); test: Test A pre-/postemergence plant response
In short: as §1

corn (Zea mays) = test: Test A pre-/postemergence plant response
In short: as §1

[6] = tested on: large crabgrass (Digitaria sanguinalis); test: Test A pre-/postemergence plant response
In short: as §1

[7] = tested on: pigweed (Amaranthus retroflexus); test: Test A pre-/postemergence plant response
In short: as §1

[8] = tested on: wheat (Triticum aestivum); test: Test B pre-/postemergence plant response; settings: for Wheat plant response rating: 8 g ai/ha
From the text: (§2) Seeds of plant species selected from blackgrass (Alopecurus myosuroides), downy bromegrass (Bromus tectorum), green foxtail (Setaria viridis), Italian ryegrass (Lolium multiflorum), wheat (Triticum aestivum), wild oat (Avena fatua), catchweed bedstraw (Galium aparine), bermudagrass (Cynodon dactylon), surinam grass (Brachiaria decumbens), cocklebur (Xanthium strumarium), corn (Zea mays), large crabgrass (Digitaria sanguinalis), woolly cupgrass (Eriochloa villosa), giant foxtail (Setaria faberii), goosegrass (Eleusine indica), johnsongrass (Sorghum halepense), kochia (Kochia scoparia), lambsquarters (Chenopodium album), morningglory (Ipomoea coccinea), eastern black (E.B.) nightshade (Solanum ptycanthum), yellow nutsedge (Cyperus esculentus), pigweed (Amaranthus retroflexus), common ragweed (Ambrosia elation), Russian thistle (Salsola iberica), soybean (Glycine max), common (oilseed) sunflower (Helianthus annuus), and velvetleaf (Abutilon theophrasti) were planted and treated preemergence with test chemicals formulated in a non-phytotoxic solvent mixture which included a surfactant.
(§3) At the same time, plants selected from these crop and weed species and also winter barley (Hordeum vulgare), canarygrass (Phalaris minor), chickweed (Stellaria media) and windgrass (Apera spica-venti) were treated with postemergence applications of some of the test chemicals formulated in the same manner. Plants ranged in height from 2 to 18 cm (1- to 4-leaf stage) for postemergence treatments.
(§4) Plant species in the flooded paddy test consisted of rice (Oryza sativa), umbrella sedge (Cyperus difformis), ducksalad (Heteranthera limosa) and barnyardgrass (Echinochloa crus-galli) grown to the 2-leaf stage for testing. At time of treatment, test pots were flooded to 3 cm above the soil surface, treated by application of test compounds directly to the paddy water, and then maintained at that water depth for the duration of the test. Treated plants and controls were maintained in a greenhouse for 13 to 15 days, after which time all species were compared to controls and visually evaluated. Plant response ratings, summarized in Table B, are based on a scale of 0 to 100 where 0 is no effect and 100 is complete control. A dash (-) response means no test result.

[9] = tested on: johnsongrass (Sorghum halepense); test: Test B pre-/postemergence plant response; settings: for Johnsongrass plant response rating: 8 g ai/ha
From the text: as §2, §3, §4

[10] = tested on: green foxtail (Setaria viridis); test: Test B pre-/postemergence plant response; settings: for Foxtail, Green plant response rating: 8 g ai/ha
From the text: as §2, §3, §4

[11] = Postemergence, 31 g ai/ha, 0 to 100 scale (0 no effect, 100 complete control)
[12] = Postemergence, 125 g ai/ha, 0 to 100 scale, 0 no effect, 100 complete control
[13] = Preemergence, 31 g ai/ha, 0 to 100 scale, 0 is no effect, 100 is complete control
[14] = Preemergence, 125 g ai/ha, 0 to 100 scale (0 no effect, 100 complete control)
[15] = Postemergence, 16 g ai/ha, scale 0 to 100
[16] = Postemergence, 62 g ai/ha, scale 0 to 100, 0 no effect, 100 complete control
[17] = Preemergence, 16 g ai/ha, scale 0 to 100 (0 no effect, 100 complete control)
[18] = Preemergence, 31 g ai/ha, 0 to 100 scale, 0 no effect, 100 complete control
[19] = Preemergence, 62 g ai/ha, scale 0 to 100
[20] = Postemergence, 31 g ai/ha, scale 0 to 100, 0 no effect, 100 complete control

CCc1cc(-c2ccc(Cl)cc2)nn1-c1c(OS(C)(=O)=O)cnn(C)c1=O [Compound 39]
Plant response rating, Wheat [1, 11]: 40
Plant response rating, Wheat [1, 12]: 80
Plant response rating, Wheat [1, 13]: 40
Plant response rating, Wheat [1, 14]: 80
Plant response rating, Barnyardgrass [2, 11]: 100
Plant response rating, Barnyardgrass [2, 12]: 100
Plant response rating, Barnyardgrass [2, 13]: 100
Plant response rating, Barnyardgrass [2, 14]: 100
Plant response rating, Foxtail, Giant [3, 11]: 90
Plant response rating, Foxtail, Giant [3, 12]: 100
Plant response rating, Foxtail, Giant [3, 13]: 90
Plant response rating, Foxtail, Giant [3, 14]: 100
Plant response rating, Velvetleaf [4, 11]: 0
Plant response rating, Velvetleaf [4, 12]: 0
Plant response rating, Velvetleaf [4, 13]: 0
Plant response rating, Velvetleaf [4, 14]: 0
Plant response rating, Morningglory [5, 11]: 0
Plant response rating, Morningglory [5, 12]: 0
Plant response rating, Morningglory [5, 13]: 0
Plant response rating, Morningglory [5, 14]: 0
Plant response rating, Corn (corn (Zea mays); [11]): 70
Plant response rating, Corn (corn (Zea mays); [12]): 100
Plant response rating, Corn (corn (Zea mays); [13]): 30
Plant response rating, Corn (corn (Zea mays); [14]): 90
Plant response rating, Crabgrass, Large [6, 11]: 60
Plant response rating, Crabgrass, Large [6, 12]: 100
Plant response rating, Crabgrass, Large [6, 13]: 60
Plant response rating, Crabgrass, Large [6, 14]: 100
Plant response rating, Pigweed [7, 11]: 0
Plant response rating, Pigweed [7, 12]: 0
Plant response rating, Pigweed [7, 13]: 0
Plant response rating, Pigweed [7, 14]: 0
Wheat plant response rating ([8]; postemergence, 0-100 scale): 20
Plant response rating, Wheat [8, 15]: 20
Plant response rating, Wheat [8, 16]: 98
Plant response rating, Wheat [8, 17]: 30
Plant response rating, Wheat [8, 18]: 70
Plant response rating, Wheat [8, 19]: 80
Wheat plant response rating ([8]; Preemergence, scale 0 to 100): 0
Johnsongrass plant response rating ([9]; postemergence, 0-100 scale): 40
Plant response rating, Johnsongrass [9, 15]: 55
Plant response rating, Johnsongrass [9, 20]: 95
Plant response rating, Johnsongrass [9, 16]: 95
Plant response rating, Johnsongrass [9, 17]: 90
Plant response rating, Johnsongrass [9, 18]: 90
Plant response rating, Johnsongrass [9, 19]: 95
Johnsongrass plant response rating ([9]; Preemergence, scale 0 to 100): 75
Foxtail, Green plant response rating ([10]; postemergence, 0-100 scale): 30
Plant response rating, Foxtail, Green [10, 15]: 80
Plant response rating, Foxtail, Green [10, 20]: 85
Plant response rating, Foxtail, Green [10, 16]: 100
Plant response rating, Foxtail, Green [10, 17]: 100
Plant response rating, Foxtail, Green [10, 18]: 100
Plant response rating, Foxtail, Green [10, 19]: 100
Foxtail, Green plant response rating ([10]; Preemergence, scale 0 to 100): 80

From patent US20100267561A1, “HERBICIDAL PYRIDAZINONE DERIVATIVES” (priority 2007, published 2010)
